Series [1] concerns the target T1, DNA-PK phosphorylation at Serine 2056 (Homo sapiens, UniProt P78527).
T1 construct: host or cells: FaDu
The series can be described thus: Cellular Assay for Inhibition of DNA-PK Phosphorylation at Serine 2056 (FaDu cells, neocarzinostatin, sandwich ELISA). In kind it is cell-based. The settings on record: Table 1. The gist of the method:
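Readout was pSer2056 and total DNA-PK, measured by sandwich ELISA on protein-normalized lysates. Prior to lysis, compound was applied to FaDu cells for 1 h (0.3% DMSO), followed by 2 h of 1 μg/mL neocarzinostatin. IC50 values were fitted from log concentration versus % inhibition normalized to DMSO and NCS controls.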

Series [2] has as its target T2, pDNA-PK ser2056 induction in FaDU spheroids (Homo sapiens, UniProt P78527).
T2 construct: host or cells: FaDu
Briefly: Multicellular tumour spheroid + radiation, pDNA-PK inhibition, FaDU. In kind it is cell-based. The settings on record: 20 Gy. How it is done:
(§1) Multicellular tumour spheroids determination of compound inhibition of pDNA-PK induction following radiation. Tumour spheroids were grown to approximately 0.5 mm in diameter and irradiated with 20 Gy in combination with inhibitor test compounds to determine their potency. Inhibitor concentration for 50% reduction in pDNA-PK induction (IC50) was determined via immunohistochemical staining in spheroid cryosections taken 2 hours following radiation. For cell survival endpoint 8 Gy radiation was used and 3 hours following radiation spheroids were dissociated, counted and plated for colony forming endpoint.
Spheroid+radiation pDNA-PK. Radiation: 20 Gy. Drug: serial dilution 5 or 10 μM down to 3.5 nM (11 wells). Spheroids: 3-6 spheroids per well (300-500 μm diameter). 20% O2 and 5% CO2. 96 well plate format. Endpoint: fluorescent immunostain pDNA-PK ser2056 and image on microscope. Analysis: determine EC50 concentrations that decreases pDNA-PK induction […] after irradiation.
(§2) Multicellular tumour spheroids were used to determine potency of test compounds in a 3D tissue environment using inhibition of pDNA-PK induction following radiation or cell survival as the endpoint. For the pDNA-PK endpoint HCT116 or FaDU tumour spheroids were grown to approximately 0.5 mm in diameter and irradiated with 20 Gy in combination with inhibitor test compounds to determine their potency. Experiments were carried out in 96 well plates containing 0.7 mls of MEM media containing 10% FBS and 10 mM glucose under 20% O2 & 5% CO2 at 37° C. Following dilution of compounds 1:1000 from DMSO stocks, compounds were serially diluted from 10 μM down to 3.5 nM and 5-10 spheroids added. 96 well plates were constantly stirred to avoid spheroids settling during the course of the experiment. The inhibitor concentration for 50% reduction in pDNA-PK induction (EC50) was determined via immunohistochemical staining in spheroid cryosections taken 2 hours following radiation using anti-pDNA-PK (ser 2056) and fixed immediately in formalin following sectioning. For cell survival endpoint 8 Gy radiation was used and, 3 hours following radiation, spheroids were dissociated, counted and plated for colony forming endpoint. Data presented in the table compound potency as EC50 [μM].

A short description of series [3]: Microsomal stability assay, mouse liver microsomes. To be noted: for microsomal CLint at 0.1 uM: male, CD-1, mouse, liver microsomes, pH 7.4, Microsomal Stability Mouse Clint, 0.1 mg/mL microsomes, 0.1 uM compound.
Description: Mouse liver microsomes were obtained from a pool of 250 or more male CD-1 mice. […] Final microsomal concentration was 0.1 mg/mL and test compound concentration was 0.1 uM with a maximum of 0.01% DMSO. The test compound was pre-incubated with pooled liver microsomes in phosphate buffer (pH 7.4) for 5 min in a 37° C. shaking water bath. The reaction was initiated by adding NADPH-generating system and incubated for 0, 15, 30, 45, and 60 min. The reaction was stopped by transferring the incubation mixture to acetonitrile/methanol. Samples were then mixed and centrifuged. Supernatants were used for HPLC-MS/MS analysis. The HPLC system consisted of a binary LC pump with autosampler, a C-18 column, and a gradient. Peak areas corresponding to the test compound were recorded. The compound remaining was calculated by comparing the peak area at each time point to time zero. The half-life was calculated from the slope of the initial linear range of the logarithmic curve of compound remaining (%) vs. time, assuming first order kinetics. In addition, the intrinsic clearance (Clint) was calculated from the half-life.
In series [4] the target is T3, pDNA-PK ser2056 induction in HCT116 spheroids (Homo sapiens, UniProt P78527).
T3 construct: endogenous in cells; host or cells: HCT116 multicellular tumour spheroids
Briefly: Multicellular tumour spheroid + radiation, pDNA-PK inhibition, HCT116. In kind it is cell-based. To be noted: 20 Gy. The gist of the method: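 EC50 (μM) is concentration halving radiation-induced pDNA-PK ser2056, scored by fluorescent immunostaining of cryosections 2 h after 20 Gy. HCT116 tumour spheroids (~0.5 mm, stirred, 20% O2/5% CO2, 37 °C) exposed to serial dilutions from 10 or 5 μM to 3.5 nM starting 1 h before irradiation.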

Series [5] deals with T4, DNA-PK (Homo sapiens, UniProt P78527).
T4 construct: purchased Invitrogen PR9107A
Briefly: DNA-PK Assay for Biochemical Enzymatic Inhibition (ADP Glo Kinase assay). The settings on record: Table 1. The gist of the method:
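Human DNA-PK (25 ng) preincubated 15 min with compounds (ten three-fold dilutions) in HEPES pH 7.5, MgCl2, KCl, calf thymus DNA buffer, then substrate 434.4 μM and ATP 64.4 μM (final) for 60 min at room temperature. ADP-Glo luminescence; percent inhibition fitted by four-parameter regression for IC50.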

Series [6] has as its system HCT116 spheroids. Briefly: Spheroid + radiation colony forming cell survival assay (SF), HCT116. In kind it is cell-based. The settings on record: Homo sapiens, HCT-116, 8 Gy. Here is the method: as §1
Spheroid+radiation colony forming cell survival assay (SF). Radiation 8 Gy. Drug: serial dilution 5 μM down to 10 nM (12 wells×2 repeat). Spheroids: 5-10 spheroids per well ([…]). HCT116. 5% O2 and 5% CO2. 96 well pate format for assay. Protocol: pre incubate 1 hour with drug, irradiate 8 Gy, post incubate 3 hrs with drug, dissociate spheroids and count cells and plate for colony forming assay. Endpoint: wait 4-7 days and count colonies. Analysis: determine EC50 concentration that increase cell kill by 50% over radiation alone.
as §2

Where [7] appears, read: Example 8, spheroid, read-out: Cell line: FaDU Immunohistochemical endpoint pDNA-PK inhibition EC50.
[8] abbreviates: Example 9 Study 2, 20% O2, read-out: Spheroid Cell line: FaDU Immunohistochemical endpoint pDNA-PK inhibition EC50.
The mark [9] stands for this setting: Example 7, spheroid, cell line HCT115 [sic], 20% O2, read-out: EC50 (pDNA-PK inhibition, immunohistochemical endpoint).
Where [10] appears, read: Example 8, spheroid, read-out: Cell line: HCT116 Immunohistochemical endpoint pDNA-PK inhibition EC50.
Where [11] appears, read: Example 9 Study 2, 20% O2, read-out: Spheroid Cell line: HCT116 Immunohistochemical endpoint pDNA-PK inhibition EC50.

Read-outs that look alike come from different tables or passages of the source.

For orientation: IC50 means the concentration that gives 50% inhibition. In general, EC50 refers to the concentration that produces a half-maximal response. In general, microsomal CLint refers to the rate of metabolic loss divided by the concentration.

`c1cnc2cc(N3CCOCC3)nc(O[C@H]3CC[C@@H](Nc4cnccn4)CC3)c2c1` [Compound 23, N-((1s,4s)-4-((7-Morpholino-1,6-naphthyridin-5-yl)oxy)cyclohexyl)pyrazin-2-amine]: the IC50 in series [1] was 100 to 1000 nM; in series [5], less than 0.5 nM. Besides, the EC50 in series [2] (setting [7]), in series [2] (setting [8]), in series [4] (setting [9]), in series [4] (setting [10]) and in series [4] (setting [11]) was 10 to 500 nM in each case. Moreover, the “Microsomal Stability (mouse) % rem. 60 min” value in series [3] is on record as “E (% remaining = 0-25%)”. Further, the microsomal CLint at 0.1 uM in series [3] was more than 116 µL/min/mg.
Regarding `COc1ccc(C(=O)N[C@H]2CC[C@@H](Oc3nc(N4CCOCC4)cc4ncccc34)CC2)cc1` [Compound 112, 4-Methoxy-N-((1s,4s)-4-((7-morpholino-1,6-naphthyridin-5-yl)oxy)cyclohexyl)benzamide], the IC50 in series [1] is 100 to 1000 nM; in series [5] it was less than 0.5 nM. Moreover, the EC50 in series [2] (setting [7]), in series [2] (setting [8]), in series [4] (setting [9]), in series [4] (setting [10]) and in series [4] (setting [11]) was 10 to 500 nM in each case. Besides, the “Microsomal Stability (mouse) % rem. 60 min” value in series [3] is on record as “E (% remaining = 0-25%)”. In series [3], this compound returned a microsomal CLint at 0.1 uM of more than 116 µL/min/mg.
Regarding `c1ccc(N[C@H]2CC[C@@H](Oc3nc(N4CCOCC4)cc4ncccc34)CC2)nc1` [Compound 25, N-((1s,4s)-4-((7-morpholino-1,6-naphthyridin-5-yl)oxy)cyclohexyl)pyridin-2-amine], the IC50 in series [1] lay in the range of 100 to 1000 nM; in series [5] it was 0.5 to 1 nM. Besides, the EC50 in series [2] (setting [7]), in series [2] (setting [8]), in series [4] (setting [9]), in series [4] (setting [10]) and in series [4] (setting [11]) was 1000 to 10000 nM throughout. Further, in series [3], the “Microsomal Stability (mouse) % rem. 60 min” value is “F (% remaining = 25-50%)”. The compound also had a microsomal CLint at 0.1 uM in series [3] of more than 116 µL/min/mg.
For the compound `O=C(N[C@H]1CC[C@@H](Oc2nc(N3CCOCC3)cc3ncccc23)CC1)c1ccc(F)cc1` [Compound 111, 4-Fluoro-N-((1s,4s)-4-((7-morpholino-1,6-naphthyridin-5-yl)oxy)cyclohexyl)benzamide], the values for the concentration for half-maximal inhibition (IC50) in series [1] and in series [5] were less than 100 nM and less than 0.5 nM, respectively. For the same compound, the EC50 in series [2] (setting [7]) lay in the range of 500 to 1000 nM; in series [2] (setting [8]), 500 to 1000 nM; in series [4] (setting [9]), 1000 to 10000 nM; in series [4] (setting [10]) it was 1000 to 10000 nM; in series [4] (setting [11]), 1000 to 10000 nM. The “Microsomal Stability (mouse) % rem. 60 min” value in series [3] is “E (% remaining = 0-25%)”. The same compound gave a microsomal CLint at 0.1 uM in series [3] of more than 116 µL/min/mg.
For the compound `c1cnc2cc(N3CCOCC3)nc(O[C@H]3CC[C@@H](Nc4ccncc4)CC3)c2c1` [Compound 27, N-((1s,4s)-4-((7-morpholino-1,6-naphthyridin-5-yl)oxy)cyclohexyl)pyridin-4-amine], the IC50 fell in the range of 100 to 1000 nM in series [1] and 0.5 to 1 nM in series [5]. For the same compound, the concentration giving a half-maximal response (EC50) in series [2] (setting [7]) was in the range of 10 to 500 nM; in series [2] (setting [8]), 10 to 500 nM; in series [4] (setting [9]) it was 1000 to 10000 nM; in series [4] (setting [10]), 1000 to 10000 nM; in series [4] (setting [11]) it was 1000 to 10000 nM. For the same compound, the “Microsomal Stability (mouse) % rem. 60 min” value in series [3] is on record as “E (% remaining = 0-25%)”. For the same compound, in series [3], the microsomal CLint at 0.1 uM is more than 116 µL/min/mg.
Regarding `FC(F)(F)c1cn([C@H]2CC[C@@H](Oc3nc(N4CCOCC4)cc4ncccc34)CC2)cn1` [Compound 17k, 4-(5-(((1s,4s)-4-(4-(trifluoromethyl)-1H-imidazol-1-yl)cyclohexyl)oxy)-1,6-naphthyridin-7-yl)morpholine], the IC50 in series [1] was less than 100 nM; in series [5] it was less than 0.5 nM. The EC50 was in the range of 500 to 1000 nM in series [2] (setting [7]); 500 to 1000 nM in series [2] (setting [8]); 1000 to 10000 nM in series [4] (setting [9]); 1000 to 10000 nM in series [4] (setting [10]); 1000 to 10000 nM in series [4] (setting [11]). The “Microsomal Stability (mouse) % rem. 60 min” value in series [3] is listed as “E (% remaining = 0-25%)”. In series [3], the microsomal CLint at 0.1 uM was more than 116 µL/min/mg.
Consider `Nc1cnc2cc(N3CCOCC3)nc(O[C@H]3CC[C@@H](n4ccnc4)CC3)c2c1` [Compound 160, 5-(((1s,4s)-4-(1H-imidazol-1-yl)cyclohexyl)oxy)-7-morpholino-1,6-naphthyridin-3-amine], for which the IC50 lay within 100 to 1000 nM in series [1] and 0.5 to 1 nM in series [5]. Further, the EC50 in series [2] (setting [7]), in series [2] (setting [8]), in series [4] (setting [9]), in series [4] (setting [10]) and in series [4] (setting [11]) was 1000 to 10000 nM each time. Moreover, the “Microsomal Stability (mouse) % rem. 60 min” value in series [3] is recorded as “E (% remaining = 0-25%)”. This compound also registered an intrinsic clearance (microsomal CLint) at 0.1 uM in series [3] of more than 116 µL/min/mg.
As for `Brc1cnc2cc(N3CCOCC3)nc(O[C@H]3CC[C@@H](n4ccnc4)CC3)c2c1` [Compound 10, 4-(5-(((1s,4s)-4-(1H-imidazol-1-yl)cyclohexyl)oxy)-3-bromo-1,6-naphthyridin-7-yl)morpholine], the 50% effective concentration (EC50) lay within 500 to 1000 nM in series [6] (Example 8, spheroid, read-out: Cell line: HCT116 Colony forming endpoint Surviving Fraction EC50); 500 to 1000 nM in series [6] (Example 9 Study 2, read-out: Spheroid Cell line: HCT116 Colony forming endpoint Surviving Fraction EC50); 500 to 1000 nM in series [2] (setting [7]); 500 to 1000 nM in series [2] (setting [8]); 1000 to 10000 nM in series [4] (setting [9]); 1000 to 10000 nM in series [4] (setting [10]). For the same compound, the EC50 in series [4] (setting [11]) lay within 1000 to 10000 nM.
